Assay results as given in patent US9724380B2, “Method and compositions for synchronizing time of insemination in gilts” (JBS UNITED ANIMAL HEALTH II LLC, priority 2012, dated 2017).

System: gilts
Experiment: Example 1: ovulation monitored by transrectal ultrasonography after 200 mcg triptorelin gel intravaginally at 96, 120 or 144 h after MATRIX withdrawal
Assay type: in vivo, swine
Conditions: 200 mcg T, raw average, PTK 1-07 (rep 3)
Procedure: All gilts were individually fed MATRIX® as a top-dress for 14 days at the recommended rate of 15 mg/gilt/day. Gilts were withdrawn from MATRIX® feeding (last top feed in the morning on Day 0) and allotted to treatments. Controls were treated with a 1.2% methylcellulose gel formulation without triptorelin at 96 hours following MATRIX® withdrawal (last top-dress). The remaining gilts received 200 mcg triptorelin, as the acetate, in a 1.2% methylcellulose gel formulation intravaginally at various times after MATRIX® withdrawal. The four treatments were: 1) vehicle gel (VG) treatment at 96 hours after MATRIX® withdrawal, 2) triptorelin gel (TG) treatment at 96 hours after MATRIX® withdrawal, 3) TG treatment at 120 hours after MATRIX® withdrawal and 4) TG treatment at 144 hours after MATRIX® withdrawal. All gilts were monitored for their estrous and ovulatory status as described below. Gilts included in replicate 1 were selected from terminal line commercial production gilts located in grow/finish barns. Sexual maturity, as indicated by one or more estrous periods, was not verified prior to the start of MATRIX® feeding. Gilts included in replicate 2 were selected from a maternal line gilt population. Sexual maturity was verified by at least one estrous period verified and recorded prior to starting MATRIX® feeding.
Triptorelin (pGlu-His-Trp-Ser-Tyr-D-Trp-Leu-Arg-Pro-Gly-NH2) was supplied in the acetate form, from Bachem, Torrance, Calif. (Item H-4075 CGMP grade). Triptorelin gel (200 μg/2 mL) was formulated by Argenta (Auckland, NZ) in a gel composed of Methocel Premium A4000 (Dow Chemical), citrate buffer (pH 5.5), NaCl, methionine and EDTA (as potential stabilizers) and methyl and propyl parabens (as preservatives). Fifty-four milliliters of triptorelin gel (100 mcg triptorelin acetate/mL) was packaged in Amber Borosilicate Glass Serum Vials (610206-50) with a Gray Butyl Pharmaceutical Serum Vial Stopper (73828A-SS) with a Standard Aluminum Seal (SAS20NAT). […] MATRIX® was supplied as the US commercially available form.
The ovulatory status of all gilts was monitored by transrectal ultrasonography. For replicate one, ovulation was monitored two times on Day 5, then three times a day from Day 6 to Day 8. For replicate two, ovulation was monitored three times a day from Day 5 to Day 8. An Aloka 500 ultrasound machine with a 7.5 MHz linear array transducer attached to a fixed-angle PVC stabilizing rod to facilitate insertion into the rectum was used for this purpose. The transducer and PVC rod were coated with a gynecological lubricant and gently inserted into the rectum until the ovaries were visualized, one at a time. The diameters of the three largest follicles were recorded (to the nearest 0.1 mm) at each scanning. A gilt was declared to have ovulated when the number of large follicles (≧6.5 mm) fell to less than 3.
A single 2 mL dose of triptorelin gel or vehicle gel was deposited within approximately 1-2 cm posterior to the cervix with a catheter similar to those used for artificial insemination. The dose was delivered using a standard multi-dose applicator attached to the catheter. A new disposable sheath, which surrounds the catheter, was used for each gilt.
Data were analyzed using the Mixed Models procedures of SAS. Models included main effects of time of treatment following the last feeding of MATRIX®, replicate, and treatment by replicate interaction. Differences between treatments were tested on least squares means estimates using the T test at P<0.05. Data for analysis were tested for assumptions of data normality.

CC(C)C[C@H](NC(=O)[C@@H](Cc1c[nH]c2ccccc12)NC(=O)[C@H](Cc1ccc(O)cc1)NC(=O)[C@H](CO)NC(=O)[C@H](Cc1c[nH]c2ccccc12)NC(=O)[C@H](Cc1c[nH]cn1)NC(=O)[C@@H]1CCC(=O)N1)C(=O)N[C@@H](CCCNC(=N)N)C(=O)N1CCC[C@H]1C(=O)NCC(N)=O [T, pGlu-His-Trp-Ser-Tyr-D-Trp-Leu-Arg-Pro-Gly-NH2]
% of Sows Ovulating (128 h post-MATRIX (8 h post-T)): 0.0% | % of Sows Ovulating (136 h post-MATRIX (16 h post-T)): 10.0% | % of Sows Ovulating (144 h post-MATRIX (24 h post-T)): 30.0% | % of Sows Ovulating (152 h post-MATRIX (32 h post-T)): 70.0% | % of Sows Ovulating (160 h post-MATRIX (40 h post-T)): 80.0% | % of Sows Ovulating (168 h post-MATRIX (48 h post-T)): 90.0% | % of Sows Ovulating (176 h post-MATRIX (56 h post-T)): 100.0%
